Results as given in ChEMBL document CHEMBL5046215, “Heparan Sulfate Mimetics Differentially Affect Homologous Chemokines and Attenuate Cancer Development” (J Med Chem, 2021).
The source made the active and inactive calls. No cut-off for these calls is given here.

Key:
Homo sapiens [1] = species on record: Homo sapiens; test: Binding affinity to human CCL13 at 100 uM by glycan microarray analysis
Homo sapiens [2] = species on record: Homo sapiens; test: Binding affinity to human CCL28 at 100 uM by glycan microarray analysis
[3] = molecular target: Interleukin-8 (Homo sapiens) (UniProt P10145); test: Binding affinity to human CXCL8 at 100 uM by glycan microarray analysis
[4] = molecular target: T1, C-C motif chemokine 5 (Homo sapiens) (UniProt P13501); test: Binding affinity to human CCL5 at 100 uM by glycan microarray analysis
T1 sequence (whole entry): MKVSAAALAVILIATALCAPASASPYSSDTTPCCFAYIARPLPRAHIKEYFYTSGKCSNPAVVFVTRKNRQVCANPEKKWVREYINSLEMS

[5] = molecular target: C-C motif chemokine 7 (Homo sapiens) (UniProt P80098); test: Binding affinity to human CCL7 at 100 uM by glycan microarray analysis
[6] = molecular target: C-X-C motif chemokine 10 (Homo sapiens) (UniProt P02778); test: Binding affinity to human CXCL10 at 100 uM by glycan microarray analysis
Homo sapiens [7] = species on record: Homo sapiens; test: Binding affinity to human CCL21 at 100 uM by glycan microarray analysis
[8] = molecular target: T2, Stromal cell-derived factor 1 (Homo sapiens, UniProt P48061); test: Binding affinity to human CXCL12 at 100 uM by glycan microarray analysis
C-C motif chemokine 2 [9] = molecular target: T3, C-C motif chemokine 2 (Homo sapiens, UniProt P13500); test: Binding affinity to human CCL2 at 100 uM by glycan microarray analysis
Target sequence in this assay (P13500 24-99 limits assumed): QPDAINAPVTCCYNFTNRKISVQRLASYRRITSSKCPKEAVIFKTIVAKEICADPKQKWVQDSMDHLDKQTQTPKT

C-C motif chemokine 2 [10] = molecular target: T3, C-C motif chemokine 2; test: Binding affinity to human CCL2 assessed as dissociation constant incubated for 3 mins by surface plasmon resonance analysis
Target sequence in this assay (P13500 whole entry): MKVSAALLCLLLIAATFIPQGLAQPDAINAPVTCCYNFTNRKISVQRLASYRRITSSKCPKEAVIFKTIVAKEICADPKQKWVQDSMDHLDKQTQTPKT

C-C motif chemokine 2 [11] = molecular target: T3, C-C motif chemokine 2; test: Binding affinity to human CCL2 assessed as on-rate constant incubated for 3 mins by surface plasmon resonance analysis
Target sequence in this assay (P13500 24-99 limits assumed): as the sequence (P13500 24-99 limits assumed) above

C-C motif chemokine 2 [12] = molecular target: T3, C-C motif chemokine 2; test: Binding affinity to human CCL2 assessed as off-rate constant incubated for 3 mins by surface plasmon resonance analysis
Target sequence in this assay (P13500 24-99 limits assumed): as above

C-C motif chemokine 5 = molecular target: T4, C-C motif chemokine 5 (Homo sapiens, UniProt P13501); test: Binding affinity to human CCL5 assessed as dissociation constant incubated for 3 mins by surface plasmon resonance analysis
T4 sequence (P13501 whole entry): T1 sequence (whole entry)

[13] = molecular target: T1, C-C motif chemokine 5 (Homo sapiens); test: Binding affinity to human CCL5 assessed as on-rate constant incubated for 3 mins by surface plasmon resonance analysis
[14] = molecular target: T1, C-C motif chemokine 5 (Homo sapiens); test: Binding affinity to human CCL5 assessed as off-rate constant incubated for 3 mins by surface plasmon resonance analysis
Interleukin-8 = molecular target: T5, Interleukin-8 (Homo sapiens, UniProt P10145); test: Binding affinity to human CXCL8 assessed as dissociation constant incubated for 3 mins by surface plasmon resonance analysis
T5 sequence (P10145 whole entry): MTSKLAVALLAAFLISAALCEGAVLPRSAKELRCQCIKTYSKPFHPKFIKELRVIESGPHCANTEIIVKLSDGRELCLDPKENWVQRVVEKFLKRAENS

[15] = molecular target: T2, Stromal cell-derived factor 1; test: Binding affinity to human CXCL12 assessed as dissociation constant incubated for 3 mins by surface plasmon resonance analysis
[16] = molecular target: Interleukin-8 (Homo sapiens) (UniProt P10145); test: Binding affinity to human CXCL8 assessed as on-rate constant incubated for 3 mins by surface plasmon resonance analysis
[17] = molecular target: Interleukin-8 (Homo sapiens) (UniProt P10145); test: Binding affinity to human CXCL8 assessed as off-rate constant incubated for 3 mins by surface plasmon resonance analysis
C-X-C motif chemokine 10 = molecular target: T6, C-X-C motif chemokine 10 (Homo sapiens, UniProt P02778); test: Binding affinity to human CXCL10 assessed as dissociation constant incubated for 3 mins by surface plasmon resonance analysis
T6 sequence (P02778 whole entry): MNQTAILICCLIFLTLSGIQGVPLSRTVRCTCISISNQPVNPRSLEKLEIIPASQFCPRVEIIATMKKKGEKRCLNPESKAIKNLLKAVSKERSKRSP

MCF7 [18] = test: Induction of cell cycle arrest in human MCF7 cells assessed as accumulation of cells at G2/M phase incubated for 72 hrs in presence of CCL2 by PI staining based flow cytometric analysis; assay type: functional
MCF7 [19] = test: Anti-proliferative activity against human MCF7 cells assessed as reduction in cell proliferation at 10 to 50 ug/ml compound pretreated with CCL2 followed by incubation with cells and measured after 48 hrs by Sulforhodamine B staining based WST assay; assay type: functional; details: dose 10-50 µg/ml, at 10 to 50 µg/mL
MDA-MB-231 = test: Anti-proliferative activity against human MDA-MB-231 cells assessed as reduction in cell proliferation at 10 to 50 ug/ml compound pretreated with CCL2 followed by incubation with cells and measured after 48 hrs by Sulforhodamine B staining based WST assay; assay type: functional; details: dose 10-50 µg/ml, at 10 to 50 µg/mL
MCF7 [20] = test: Antimigratory activity against human MCF7 cells assessed as reduction in cell migration at 10 to 50 ug/ml measured after 5 hrs in presence of CCL2 by wound healing assay relative to control; assay type: functional; details: dose 10-50 µg/ml
MCF7 [21] = test: Antiinvasive activity against human MCF7 cells assessed as inhibition of cell invasion at 50 ug/ml measured after 24 hrs in presence of CCL2 by crystal violet staining based Boyden chamber analysis; assay type: functional; details: dose 50.0 µg/ml
MCF7 [22] = test: Decrease in MAPK expression in human MCF7 cells at 50 ug/ml measured after 30 mins in presence of CCL2 by Western blot analysis; assay type: functional, cell-based; details: dose 50.0 µg/ml

C-C motif chemokine 7 (Homo sapiens), sequence (P80098 whole entry): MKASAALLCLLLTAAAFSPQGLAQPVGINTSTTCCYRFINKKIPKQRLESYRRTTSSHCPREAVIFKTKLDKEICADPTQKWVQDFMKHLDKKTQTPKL
T2 sequence (P48061 whole entry): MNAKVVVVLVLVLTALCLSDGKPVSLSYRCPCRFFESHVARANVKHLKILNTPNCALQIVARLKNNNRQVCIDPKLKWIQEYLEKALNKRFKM

| SMILES | Activity (Homo sapiens [1]) | Activity (Homo sapiens [2]) | Activity [3] | Activity [4] | Activity [5] | Activity [6] | Activity (Homo sapiens [7]) | Activity [8] | Activity (C-C motif chemokine 2 [9]) | other results |
| --- | --- | --- | --- | --- | --- | --- | --- | --- | --- | --- |
| NCCOCCO[C@@H]1O[C@@H](C(=O)O)[C@@H](O[C@@H]2O[C@@H](C(=O)O)[C@@H](O[C@@H]3O[C@@H](C(=O)O)[C@@H](OS(=O)(=O)O)[C@H](O)[C@H]3O)[C@H](O)[C@H]2O)[C@H](O)[C@H]1O | 86% | 80% | 63% | 30% | 75% | 78% | 83% | 92% | 36% | – |
| NCCOCCO[C@@H]1O[C@@H](C(=O)O)[C@@H](OS(=O)(=O)O)[C@H](O)[C@H]1O | 81% | 80% | 62% | 15% | 58% | 57% | 62% | 64% | 23% | – |
| NCCOCCO[C@@H]1O[C@@H](C(=O)O)[C@@H](O)[C@H](O)[C@H]1O | 74% | 46% | 17% | 2% | 30% | 47% | 52% | 62% | 4% | – |
| NCCOCCO[C@@H]1O[C@@H](C(=O)O)[C@@H](O[C@@H]2O[C@@H](C(=O)O)[C@@H](OS(=O)(=O)O)[C@H](O)[C@H]2OS(=O)(=O)O)[C@H](O)[C@H]1OS(=O)(=O)O | 88% | 76% | 83% | 86% | 87% | 96% | 86% | 98% | 69% | – |
| NCCOCCO[C@@H]1O[C@@H](C(=O)O)[C@@H](O[C@@H]2O[C@@H](C(=O)O)[C@@H](O[C@@H]3O[C@@H](C(=O)O)[C@@H](O[C@@H]4O[C@@H](C(=O)O)[C@@H](O)[C@H](O)[C@H]4O)[C@H](O)[C@H]3O)[C@H](O)[C@H]2O)[C@H](O)[C@H]1O | 67% | 56% | 12% | 2% | 33% | 44% | 48% | 56% | 2% | – |
| NCCOCCO[C@@H]1O[C@@H](C(=O)O)[C@@H](OS(=O)(=O)O)[C@H](O)[C@H]1OS(=O)(=O)O | 53% | 51% | 71% | 75% | 94% | 82% | 79% | 75% | 66% | – |
| NCCOCCO[C@@H]1O[C@@H](C(=O)O)[C@@H](O[C@@H]2O[C@@H](C(=O)O)[C@@H](O[C@@H]3O[C@@H](C(=O)O)[C@@H](O[C@@H]4O[C@@H](C(=O)O)[C@@H](OS(=O)(=O)O)[C@H](O)[C@H]4OS(=O)(=O)O)[C@H](O)[C@H]3OS(=O)(=O)O)[C@H](O)[C@H]2OS(=O)(=O)O)[C@H](O)[C@H]1OS(=O)(=O)O | 70% | 72% | 96% | 91% | 80% | 87% | 50% | 91% | 88% | Kd (C-C motif chemokine 2 [10]): 1.67 µM; K (C-C motif chemokine 2 [11]): 1.26 10^5/M/s; K (C-C motif chemokine 2 [12]): 2.1 10^-1/s; Kd (C-C motif chemokine 5): 5.72 µM; K [13]: 4.2 10^4/M/s; K [14]: 2.4 10^-1/s; Kd (Interleukin-8): 9.34 µM; Kd [15]: 18.8 µM; K [16]: 3.16 10^5/M/s; K [17]: 2.96 10^-1/s; Kd (C-X-C motif chemokine 10): 19.5 µM; Activity (MCF7 [18]): 19%; inhibition (INH) (MCF7 [19]): 40%; inhibition (INH) (MDA-MB-231): 40%; inhibition (INH) (MCF7 [20]; at 10 to 50 µg/mL): 34%; Activity (MCF7 [21]): Active; inhibition (MCF7 [22]): Active |
| NCCOCCO[C@@H]1O[C@@H](C(=O)O)[C@@H](O[C@@H]2O[C@@H](C(=O)O)[C@@H](OS(=O)(=O)O)[C@H](O)[C@H]2O)[C@H](O)[C@H]1O | 94% | 84% | 73% | 38% | 55% | 67% | 71% | 79% | 25% | – |
| NCCOCCO[C@@H]1O[C@@H](C(=O)O)[C@@H](O[C@@H]2O[C@@H](C(=O)O)[C@@H](O[C@@H]3O[C@@H](C(=O)O)[C@@H](OS(=O)(=O)O)[C@H](O)[C@H]3OS(=O)(=O)O)[C@H](O)[C@H]2OS(=O)(=O)O)[C@H](O)[C@H]1OS(=O)(=O)O | 67% | 84% | 95% | 80% | 79% | 74% | 80% | 82% | 67% | – |
| NCCOCCO[C@@H]1O[C@@H](C(=O)O)[C@@H](O[C@@H]2O[C@@H](C(=O)O)[C@@H](O[C@@H]3O[C@@H](C(=O)O)[C@@H](O[C@@H]4O[C@@H](C(=O)O)[C@@H](OS(=O)(=O)O)[C@H](O)[C@H]4O)[C@H](O)[C@H]3O)[C@H](O)[C@H]2O)[C@H](O)[C@H]1O | 72% | 54% | 13% | 10% | 12% | 23% | 60% | 45% | 0% | Activity (MCF7 [20]): inactive |
| NCCOCCO[C@@H]1O[C@@H](C(=O)O)[C@@H](O[C@@H]2O[C@@H](C(=O)O)[C@@H](O[C@@H]3O[C@@H](C(=O)O)[C@@H](O)[C@H](O)[C@H]3O)[C@H](O)[C@H]2O)[C@H](O)[C@H]1O | 69% | 72% | 5% | 1% | 17% | 24% | 46% | 38% | 0% | – |
| NCCOCCO[C@@H]1O[C@@H](C(=O)O)[C@@H](O[C@@H]2O[C@@H](C(=O)O)[C@@H](O)[C@H](O)[C@H]2O)[C@H](O)[C@H]1O | 82% | 58% | 12% | 2% | 30% | 45% | 63% | 66% | 2% | – |
